Measurements published in patent publication US11401262B2, “Dimeric contrast agents” (BRACCO IMAGING S.P.A., priority 2015, dated 2022).

Assay: Relaxometric properties: longitudinal relaxivity r1p measurement
Type: physicochemical
Conditions: per mM Gd; for r1p at 0.47 T 37° C., human plasma / r1p at 0.47 T 37° C., saline: 0.47 T (20 MHz); for r1p at 0.47 T 37° C., saline / r1p at 1.41 T 37° C., saline: physiologic solution; for r1p at 1.41 T 37° C., human plasma / r1p at 1.41 T 37° C., saline: 1.41 T (60 MHz)
Procedure: The relaxometric properties of some representative complex compounds according to the invention have been determined at different magnetic field strengths, e.g. including 0.47 and 1.41 T, at 37° C. and in different media (physiologic solution and human plasma) and compared with relaxivity values measured, at the same conditions, for some Gd-Complex of the market having an analogous cyclic coordination cage.
The longitudinal water proton relaxation rate (R1=1/T1) was measured at 0.47 T with a Minispec MQ-20 spectrometer (Bruker Biospin, Germany) operating at a proton Larmor frequency of 20 MHz; MR experiments at 1.41 T were performed using a Minispec MQ-60 spectrometer (Bruker Biospin, Germany) operating at a proton Larmor frequency of 60 MHz.
All test articles were used as supplied and diluted in the selected medium (physiologic solution or human plasma) by weighting the required amount of paramagnetic chelated complex to get a 5 or 10 mM starting solution.
Five different concentration samples (0.1, 0.25, 0.5, 0.75 and 1 mM) for each medium have been prepared by further dilution of the starting 5 or 10 mM solution.
Relaxivity measurements were performed at 0.47 T and 1.41 T at a preset temperature sample of 37° C., kept constant by means of a thermostatic bath connected to the sample holder of the spectrometer. The five sample solutions have been preliminary pre-heated at 37° C. in an external thermostatic bath and then left 10 minutes inside the internal bath to assure the stabilization of the temperature. Longitudinal relaxation time T1 was measured by means of a standard inversion recovery sequence, where the inversion time (TI) was varied from 10 ms to at least 5 times T1 in 15 steps. Statistical analysis (mono-exponential fitting for T1 measurement, linear fitting for the evaluation of longitudinal relaxivity) was performed by Mathematica® (Wolfram, USA). Errors on the estimated parameters were evaluated by the fitting procedure.

r1p at 0.47 T 37° C., human plasma [mM⁻¹ s⁻¹]	r1p at 0.47 T 37° C., saline [mM⁻¹ s⁻¹]	r1p at 1.41 T 37° C., human plasma [mM⁻¹ s⁻¹]	r1p at 1.41 T 37° C., saline [mM⁻¹ s⁻¹]	Compound
9.7	8.3	9.2	8.5	O=C(O)CN1CCN(CC(=O)O)CCN(CC(O)CN(CC(=O)O)CC(O)CN2CCN(CC(=O)O)CCN(CC(=O)O)CCN(CC(=O)O)CC2)CCN(CC(=O)O)CC1 (stereo not shown)
11.5	9.3	10.8	9.4	O=C(O)CN1CCN(CC(=O)O)CCN(CC(O)CN(CC(O)CN2CCN(CC(=O)O)CCN(CC(=O)O)CCN(CC(=O)O)CC2)CC(O)C(O)C(O)C(O)CO)CCN(CC(=O)O)CC1 (stereo not shown)
10.6	7.3	10.2	7.5	O=C(O)CN1CCN(CC(=O)O)CCN(CC(O)CN(CCN(CC(=O)O)CC(O)CN2CCN(CC(=O)O)CCN(CC(=O)O)CCN(CC(=O)O)CC2)CC(=O)O)CCN(CC(=O)O)CC1 (stereo not shown)
12.0	9.0	11.3	9.3	O=C(O)CN1CCN(CC(=O)O)CCN(CC(O)CN(CC(O)CN2CCN(CC(=O)O)CCN(CC(=O)O)CCN(CC(=O)O)CC2)CP(=O)(O)O)CCN(CC(=O)O)CC1 (stereo not shown) [Chelate Complex 2]
